Results on four compounds are retold here after patent publication US10179770B2, “Quinolines derivatives as novel anticancer agents” (GENOSCIENCE PHARMA, priority 2013, dated 2019).

Common to all, as to format: cell-based
Assay [1] relates to Colo205. The assay can be described thus: EC50 determination in cancer cell lines. The conditions noted are these: Homo sapiens, COLO 205, 72 h, * n>2. In a few lines: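 Cells treated with compound for 72 h, vehicle (DMSO or H2O) held constant; adherent lines plated overnight beforehand, MOLM-14 plated immediately before. Growth read by absorbance: MTS-type CellTiter 95 for adherent cells, sulforhodamine B for suspension cells. EC50 is dose reducing absorbance to 50% of vehicle, mean of ≥2 experiments.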

In assay [2] the test system is MOLM-14 cell line. The experiment in a line: Growth inhibition assay of MOLM-14 (CellTiter-Glo, example 63). The conditions noted are these: Homo sapiens, 48 h, method of example 63. As for the experimental part: MOLM-14 cell line was cultured in RPMI-1640 Medium supplemented with 10% v/v Fetal Bovine Serum (FBS), 1% Penicillin-Streptomycin and maintained at 37° C. with 5% CO2. 10,000 cells were plated onto 96-well plates immediately before the assay.
Each compound was added at different concentrations (combinations of six concentrations) to each well, and cell cultures were incubated for 48 h. Vehicle (H2O) was used as a control, and all compounds were tested in a constant percentage of vehicle. Cell outgrowth was measured using the CellTiter-Glo luminescent cell viability assay as described by the manufacturer (Promega, Ref G7571 Madison, Wis., USA) using a Centro (Berthold, France) plate reader.
In each experiment, each point represents the average of triplicates in cell culture.
The experimental data are analyzed using a computer program, Graphpad Prism (GraphPad Software, Inc. La Jolla, Calif.) and EC50 values were determined as the dose of compound required to reduce absorbance values to 50% of the signal obtained for vehicle treated cell cultures.

The subject of assay [3] is OVCAR-5. The assay can be described thus: NCI-60 screen (SRB). The conditions noted are these: OVCAR-5 (Ovarian). As for the experimental part:
The human tumor cell lines of the cancer screening panel are grown in RPMI 1640 medium containing 5% fetal bovine serum and 2 mM L-glutamine. For a typical screening experiment, cells are inoculated into 96 well microtiter plates in 100 μL at plating densities ranging from 5,000 to 40,000 cells/well depending on the doubling time of individual cell lines. After cell inoculation, the microtiter plates are incubated at 37° C., 5% CO2, 95% air and 100% relative humidity for 24 h prior to addition of experimental drugs.
After 24 h, two plates of each cell line are fixed in situ with TCA, to represent a measurement of the cell population for each cell line at the time of drug addition (Tz). Experimental drug is solubilized in dimethyl sulfoxide at 400-fold the desired final maximum test concentration and stored frozen prior to use. At the time of drug addition, an aliquot of frozen concentrate is thawed and diluted to twice the desired final maximum test concentration with complete medium containing 50 μg/ml gentamicin. Additional four, 10-fold or ½ log serial dilutions are made to provide a total of five drug concentrations plus control. Aliquots of 100 μl of these different drug dilutions are added to the appropriate microtiter wells already containing 100 μl of medium, resulting in the required final drug concentrations.
Following drug addition, the plates are incubated for an additional 48 h at 37° C., 5% CO2, 95% air, and 100% relative humidity. For adherent cells, the assay is terminated by the addition of cold TCA. Cells are fixed in situ by the gentle addition of 50 μl of cold 50% (w/v) TCA (final concentration, 10% TCA) and incubated for 60 minutes at 4° C. The supernatant is discarded, and the plates are washed five times with tap water and air dried. Sulforhodamine B (SRB) solution (100 μl) at 0.4% (w/v) in 1% acetic acid is added to each well, and plates are incubated for 10 minutes at room temperature. After staining, unbound dye is removed by washing five times with 1% acetic acid and the plates are air dried. Bound stain is subsequently solubilized with 10 mM trizma base, and the absorbance is read on an automated plate reader at a wavelength of 515 nm. For suspension cells, the methodology is the same except that the assay is terminated by fixing settled cells at the bottom of the wells by gently adding 50 μl of 80% TCA (final concentration, 16% TCA). Using the seven absorbance measurements [time zero, (Tz), control growth, (C), and test growth in the presence of drug at the five concentration levels (Ti)], the percentage growth is calculated at each of the drug concentrations levels.
Percentage growth inhibition is calculated as: [(Ti−Tz)/(C−Tz)]×100 for concentrations for which Ti>/=Tz (1) [(Ti−Tz)/Tz]×100 for concentrations for which Ti<Tz (2)
Growth inhibition of 50% (GI50) is calculated from [(Ti−Tz)/(C−Tz)]×100=50 (3)
which is the drug concentration resulting in a 50% reduction in the net protein increase (as measured by SRB staining) in control cells during the drug incubation.
The drug concentration resulting in total growth inhibition (TGI) is calculated from Ti=Tz (4)
The LC50 (concentration of drug resulting in a 50% reduction in the measured protein at the end of the drug treatment as compared to that at the beginning) indicating a net loss of cells following treatment is calculated from [(Ti−Tz)/Tz]×100=−50 (5)
Values are calculated for each of these three parameters if the level of activity is reached; however, if the effect is not reached or is exceeded, the value for that parameter is expressed as greater or less than the maximum or minimum concentration tested.

In general, EC50 refers to the concentration that produces a half-maximal response. The compound `CCN(CC)C1CCN(C(C)c2cc(-c3ccc4ccccc4c3)nc3ccccc23)CC1.Cl.Cl` (stereo not drawn) [XXIV-3, 2-(2-naphtyl)-4-{1-[4-(N,N-diethylamino)-piperidin-1-yl]-eth-1-yl}quinoline dihydrochloride] showed an EC50 in assay [1] of 5 µM.

Broadly, the GI50 is the concentration at which growth is held to half of that of the control. A low value points to greater sensitivity of the cells. For orientation: TGI means the concentration at which net growth stops. A high value points to lower sensitivity of the cells. As to `CCN(CC)C1CCN(C(C)c2cc(-c3ccccc3)nc3ccccc23)CC1.Cl.Cl` (stereo not drawn) [XIX-3, 2-phenyl-4-{1-[4-(N,N-diethylamino)piperidin-1-yl]-eth-1-yl}quinoline dihydrochloride], the concentration for a half-maximal effect (EC50) in assay [2] amounted to 22 µM. This compound also had a GI50 in assay [3] (Homo sapiens) of 13 µM. The CC50 in assay [3] (Homo sapiens, read-out: LC50 (the source's name)) worked out at 58 µM. In assay [3], the TGI worked out at 28 µM and the “Growth percent at 10 μM” value was “+ (cell growth 60 > % < 80)”.

As to `CC(C)(C)NC1CCN(c2cc(-c3ccc(Cl)cc3)nc3ccccc23)CC1.Cl.Cl` [XII-4, 2-(4-chloro-phenyl)-4-(4-N-tert-butylamino-piperidin-1-yl)quinoline dihydrochloride], the “Growth percent at 10 μM” value in assay [3] was “++ (cell growth 40 > % < 60)”.

On to `Cc1ccc(-c2cc(N3CCC(NC(C)(C)C)CC3)c3ccccc3n2)cc1.Cl.Cl` [XIII-8, 2-(4-methyl-phenyl)-4-(4-N-tert-butylamino-piperidin-1-yl)quinoline dihydrochloride], for which the EC50 in assay [2] turned out to be 6 µM; in assay [1] it was 8 µM.
